This passage reports inhibition results from patent US20170190705A1, “Compositions and Methods for Inhibiting BMP” (THE BRIGHAM AND WOMAN'S HOSPITAL, INC., priority 2014, published 2017).

Common to all, as to assay type: biochemical
The target in one test is P38β (Homo sapiens, UniProt Q15759). Briefly: Kinome profiling P38β. The following applies: read-out: Inhibitory activity P38β; for inhibition at 0.1 µM: 100 nM. As for the experimental part:
(§1) . The kinome-wide selectivity was determined following the methods previously reported by Mohedas et al., ACS Chem Biol 2013, 8, 1291-1302 and Sanvitale et al., PLoS One 2013, 8, e62721.

The target of another test is T1, MARK4 (Homo sapiens, UniProt Q96L34).
T1 sequence (Q96L34 1-752): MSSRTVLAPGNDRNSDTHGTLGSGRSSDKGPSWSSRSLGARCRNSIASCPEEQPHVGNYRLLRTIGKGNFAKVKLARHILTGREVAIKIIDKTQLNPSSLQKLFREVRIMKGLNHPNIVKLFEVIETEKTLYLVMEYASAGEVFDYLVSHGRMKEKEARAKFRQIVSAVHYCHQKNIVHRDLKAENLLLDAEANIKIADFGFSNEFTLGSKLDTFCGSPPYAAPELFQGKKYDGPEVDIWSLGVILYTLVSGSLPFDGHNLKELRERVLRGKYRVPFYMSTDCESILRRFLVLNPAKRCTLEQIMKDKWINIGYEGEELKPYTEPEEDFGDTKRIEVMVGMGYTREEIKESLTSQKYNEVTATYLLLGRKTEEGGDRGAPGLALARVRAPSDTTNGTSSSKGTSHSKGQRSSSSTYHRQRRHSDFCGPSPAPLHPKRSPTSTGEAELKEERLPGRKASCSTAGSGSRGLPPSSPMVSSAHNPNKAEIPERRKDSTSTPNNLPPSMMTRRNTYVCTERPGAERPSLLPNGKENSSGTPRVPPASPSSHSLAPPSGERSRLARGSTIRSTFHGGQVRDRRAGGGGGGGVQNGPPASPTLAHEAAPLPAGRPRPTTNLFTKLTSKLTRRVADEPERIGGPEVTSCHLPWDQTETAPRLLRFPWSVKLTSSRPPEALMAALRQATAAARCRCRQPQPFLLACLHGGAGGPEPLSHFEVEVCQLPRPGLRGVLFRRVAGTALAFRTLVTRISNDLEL
Briefly: Kinome profiling MARK4. Conditions: read-out: Inhibitory activity MARK4; for inhibition at 0.1 µM: 100 nM. As for the experimental part: as §1

A further test deals with T2, CHEK1 (Homo sapiens, UniProt O14757).
T2 sequence (O14757 1-476): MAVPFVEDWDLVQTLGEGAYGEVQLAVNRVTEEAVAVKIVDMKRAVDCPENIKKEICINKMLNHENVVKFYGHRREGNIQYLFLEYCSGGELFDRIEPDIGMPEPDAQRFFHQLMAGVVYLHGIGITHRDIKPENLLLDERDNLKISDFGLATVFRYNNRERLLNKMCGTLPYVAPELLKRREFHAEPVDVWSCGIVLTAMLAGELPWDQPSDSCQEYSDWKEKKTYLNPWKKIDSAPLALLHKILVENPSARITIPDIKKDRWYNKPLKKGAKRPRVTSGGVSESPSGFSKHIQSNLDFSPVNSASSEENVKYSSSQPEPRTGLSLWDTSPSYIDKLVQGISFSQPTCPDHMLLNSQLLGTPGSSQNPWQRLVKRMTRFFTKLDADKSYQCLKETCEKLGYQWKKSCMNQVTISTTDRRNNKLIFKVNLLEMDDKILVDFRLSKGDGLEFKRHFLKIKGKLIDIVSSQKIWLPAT
The test is described as follows: Kinome profiling CHEK1. The following applies: read-out: Inhibitory activity CHEK1; for inhibition at 0.1 µM: 100 nM. As for the experimental part:
as §1

The next test has as its target PKC-γ (Homo sapiens, UniProt P05129). Briefly: Kinome profiling PKC-γ. Conditions: read-out: Inhibitory activity PKC-γ; for inhibition at 0.1 µM: 100 nM. As for the experimental part: as §1
A further test concerns the target PI3-K-α (Homo sapiens, UniProt P42336). The test is described as follows: Kinome profiling PI3-K-α. Conditions: read-out: Inhibitory activity PI3-K-α; for inhibition at 0.1 µM: 100 nM. As for the experimental part: as §1
A further test has as its target T3, NEK1 (Homo sapiens, UniProt Q96PY6).
T3 sequence (Q96PY6 1-1258): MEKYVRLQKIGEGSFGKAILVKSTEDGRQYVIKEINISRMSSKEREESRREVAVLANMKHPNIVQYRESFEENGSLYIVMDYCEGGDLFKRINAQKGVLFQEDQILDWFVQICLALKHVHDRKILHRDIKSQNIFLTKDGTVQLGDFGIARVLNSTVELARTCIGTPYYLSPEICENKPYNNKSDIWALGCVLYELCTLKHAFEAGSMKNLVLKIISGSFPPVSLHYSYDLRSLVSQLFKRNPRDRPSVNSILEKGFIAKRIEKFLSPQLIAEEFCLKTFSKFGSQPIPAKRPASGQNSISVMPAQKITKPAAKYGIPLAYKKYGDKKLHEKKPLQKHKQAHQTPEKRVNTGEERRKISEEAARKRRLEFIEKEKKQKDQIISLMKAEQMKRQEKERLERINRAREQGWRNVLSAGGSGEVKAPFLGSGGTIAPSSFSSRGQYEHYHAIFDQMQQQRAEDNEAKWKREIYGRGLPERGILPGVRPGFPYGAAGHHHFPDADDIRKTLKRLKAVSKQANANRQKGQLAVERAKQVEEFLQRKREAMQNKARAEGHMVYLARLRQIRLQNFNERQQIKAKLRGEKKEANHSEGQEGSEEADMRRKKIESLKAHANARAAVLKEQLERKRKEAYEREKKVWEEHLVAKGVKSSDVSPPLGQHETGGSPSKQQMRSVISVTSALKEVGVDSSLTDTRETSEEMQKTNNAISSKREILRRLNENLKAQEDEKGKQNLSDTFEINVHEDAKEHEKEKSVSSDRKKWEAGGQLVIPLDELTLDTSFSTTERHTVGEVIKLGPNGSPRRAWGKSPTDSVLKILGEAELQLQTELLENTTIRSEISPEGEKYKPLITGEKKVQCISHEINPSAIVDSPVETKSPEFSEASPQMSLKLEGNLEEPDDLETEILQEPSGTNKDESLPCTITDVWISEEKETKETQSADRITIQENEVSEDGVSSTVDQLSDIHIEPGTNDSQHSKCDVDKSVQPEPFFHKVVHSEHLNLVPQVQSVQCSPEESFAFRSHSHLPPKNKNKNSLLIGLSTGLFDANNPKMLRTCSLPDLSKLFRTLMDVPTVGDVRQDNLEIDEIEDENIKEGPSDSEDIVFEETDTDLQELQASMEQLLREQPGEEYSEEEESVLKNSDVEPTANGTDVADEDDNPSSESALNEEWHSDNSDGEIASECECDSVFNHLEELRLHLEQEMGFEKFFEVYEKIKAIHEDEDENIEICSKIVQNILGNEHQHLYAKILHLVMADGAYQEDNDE
Briefly: Kinome profiling NEK1. The following applies: read-out: Inhibitory activity NEK1; for inhibition at 0.1 µM: 100 nM. As for the experimental part:
as §1

Sequence of P38β (Q15759 whole entry): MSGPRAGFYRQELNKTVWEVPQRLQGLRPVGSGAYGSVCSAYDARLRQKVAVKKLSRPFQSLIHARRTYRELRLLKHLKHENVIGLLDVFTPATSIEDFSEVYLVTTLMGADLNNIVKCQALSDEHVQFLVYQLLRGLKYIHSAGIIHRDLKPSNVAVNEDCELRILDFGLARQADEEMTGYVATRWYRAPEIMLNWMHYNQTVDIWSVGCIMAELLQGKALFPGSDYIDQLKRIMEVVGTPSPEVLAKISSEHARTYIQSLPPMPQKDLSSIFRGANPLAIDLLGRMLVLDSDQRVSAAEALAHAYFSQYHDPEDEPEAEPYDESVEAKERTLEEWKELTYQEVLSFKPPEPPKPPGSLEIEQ
Sequence of PI3-K-α (P42336 whole entry): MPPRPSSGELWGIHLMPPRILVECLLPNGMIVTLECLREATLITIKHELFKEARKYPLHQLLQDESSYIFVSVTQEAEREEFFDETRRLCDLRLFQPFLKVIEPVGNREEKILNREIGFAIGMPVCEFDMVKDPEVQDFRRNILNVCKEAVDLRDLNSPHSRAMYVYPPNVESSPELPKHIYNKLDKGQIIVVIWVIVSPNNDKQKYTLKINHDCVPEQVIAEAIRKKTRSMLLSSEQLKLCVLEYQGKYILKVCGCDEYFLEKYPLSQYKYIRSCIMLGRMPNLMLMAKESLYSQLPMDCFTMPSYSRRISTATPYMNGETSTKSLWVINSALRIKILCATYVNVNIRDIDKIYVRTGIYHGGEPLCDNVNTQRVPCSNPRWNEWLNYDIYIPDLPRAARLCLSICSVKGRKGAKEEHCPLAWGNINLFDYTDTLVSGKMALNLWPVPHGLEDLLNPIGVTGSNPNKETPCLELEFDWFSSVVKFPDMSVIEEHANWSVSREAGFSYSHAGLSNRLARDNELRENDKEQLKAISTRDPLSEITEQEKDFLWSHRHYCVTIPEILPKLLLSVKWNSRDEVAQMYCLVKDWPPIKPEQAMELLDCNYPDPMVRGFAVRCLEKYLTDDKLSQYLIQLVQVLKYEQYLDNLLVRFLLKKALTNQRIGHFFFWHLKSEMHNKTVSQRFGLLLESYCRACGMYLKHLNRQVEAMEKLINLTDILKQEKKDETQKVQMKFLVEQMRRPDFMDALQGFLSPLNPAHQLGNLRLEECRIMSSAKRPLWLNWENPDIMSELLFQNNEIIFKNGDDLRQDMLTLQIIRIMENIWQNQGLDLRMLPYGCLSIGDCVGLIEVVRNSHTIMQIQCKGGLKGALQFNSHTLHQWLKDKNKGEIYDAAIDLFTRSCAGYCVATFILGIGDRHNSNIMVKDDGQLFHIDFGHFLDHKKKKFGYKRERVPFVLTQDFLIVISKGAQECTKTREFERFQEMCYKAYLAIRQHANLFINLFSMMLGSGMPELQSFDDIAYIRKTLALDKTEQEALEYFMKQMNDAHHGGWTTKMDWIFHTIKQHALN
Sequence of PI3-K-α (P27986 whole entry partner): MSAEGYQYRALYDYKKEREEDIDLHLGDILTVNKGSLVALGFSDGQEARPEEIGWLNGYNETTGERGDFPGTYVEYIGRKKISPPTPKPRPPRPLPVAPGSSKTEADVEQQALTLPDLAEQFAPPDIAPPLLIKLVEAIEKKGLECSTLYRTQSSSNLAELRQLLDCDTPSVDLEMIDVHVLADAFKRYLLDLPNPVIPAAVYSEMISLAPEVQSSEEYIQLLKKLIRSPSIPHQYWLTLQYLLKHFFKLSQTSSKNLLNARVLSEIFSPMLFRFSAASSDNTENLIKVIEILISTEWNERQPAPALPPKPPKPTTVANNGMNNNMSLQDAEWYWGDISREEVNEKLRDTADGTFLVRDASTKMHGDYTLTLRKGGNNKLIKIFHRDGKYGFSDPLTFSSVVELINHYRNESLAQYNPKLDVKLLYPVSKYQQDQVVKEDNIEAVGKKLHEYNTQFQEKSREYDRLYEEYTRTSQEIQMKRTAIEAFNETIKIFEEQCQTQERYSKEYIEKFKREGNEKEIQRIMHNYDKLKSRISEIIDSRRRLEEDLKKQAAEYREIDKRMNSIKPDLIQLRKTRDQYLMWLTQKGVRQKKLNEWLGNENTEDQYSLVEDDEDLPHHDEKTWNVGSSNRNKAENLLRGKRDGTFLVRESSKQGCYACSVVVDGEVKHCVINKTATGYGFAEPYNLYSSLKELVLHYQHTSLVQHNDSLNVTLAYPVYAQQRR

In the case of `COc1cc(-c2cc(-c3ccc(N4CCNCC4)cc3)cnc2C)cc(OC)c1OC` [Compound 10, 1-(4-(6-methyl-5-(3,4,5-trimethoxyphenyl)pyridin-3-yl)phenyl)piperazine], the inhibition at 0.1 µM on P38β came out at 1%; on MARK4, 1%; on CHEK1, 4%; on PKC-γ, 3%; on PI3-K-α, 5%; at NEK1 it was 2%. The inhibition at 1 µM at P38β was 11%; at MARK4, 2%; on CHEK1, -3%; at PKC-γ, 5%; on PI3-K-α it was 7%; on NEK1, 1%.
For `COc1cc(-c2cc(-c3ccc(N4CCNCC4)cc3)cnc2N)cc(OC)c1OC` [Compound 15, 5-(4-(piperazin-1-yl)phenyl)-3-(3,4,5-trimethoxyphenyl)pyridin-2-amine], the inhibition at 0.1 µM came out at 10% at P38β; 5% at MARK4; 2% on CHEK1; 1% on PKC-γ; 4% on PI3-K-α; 1% at NEK1. Moreover, the inhibition at 1 µM worked out at 44% on P38β; 40% on MARK4; 6% on CHEK1; 4% on PKC-γ; 4% at PI3-K-α; 1% at NEK1.
